Experiment [1] is described as follows: Antioxidant effect: free radical scavenging by DPPH method. Type of experiment: biochemical. Conditions: 30 minutes, 517 nm, based on vitamin C 0.1% as 100%. As to the method:
An antioxidant effect experiment was performed to confirm an antioxidant effect of Examples 1 to 4 and Comparative Examples 1 to 8 through a free radical scavenging effect using a DPPH method according to a known method. 100 μl of Examples 1 to 4 and Comparative Examples 1 to 8 were dispensed into 96 microplates, and 10 μl of a 2,2-diphenyl-1-picrylhydrazyl (DPPH) solution dissolved in ethanol to reach 1 mM was added thereto. After a reaction in 30 minutes later at room temperature, absorbance was measured at 517 nm to measure a free radical scavenging activity. An experiment was performed with vitamin C at a concentration of 0.1% as a control group along with the compositions of Examples 1 to 4 and Comparative Examples 1 to 8. The results are shown in table 3 based on the free radical scavenging effect of vitamin C as 100%.
On the technique in general: Loss of DPPH colour is used to gauge radical scavenging.

Experiment [2] deals with RAW264.7 cells. In words: Anti-inflammatory effect: nitric oxide (NO) formation inhibition, GRIESS method, LPS stimulus. Type of experiment: cell-based, mouse. The conditions noted are these: RAW264.7, 10 ppm, LPS 1 μg, 24 hours. The procedure: An anti-inflammatory effect was confirmed with respect to above Examples 1 to 4 and Comparative Examples 1 to 8.
In order to confirm the anti-inflammatory effect and skin trouble alleviation effect of Examples 1 to 4 and Comparative Examples 1 to 8, an experiment on nitric oxide (NO) formation inhibitory power was performed with a GRIESS method using RAW264.7 cell lines (ATCC number: CRL-2278).
Specifically, RAW264.7 cells, which are mouse macrophages, were subcultured several times and placed in a 24-well plate so that 3×10^5 cells were put into each well, and then incubated for 24 hours. Then, Examples 1 to 4 and Comparative Examples 1 to 8 were replaced with a diluted cell medium at a concentration of 10 ppm. At this time, L-NMMA (L-NG-Monomethylarginine), a NO-production inhibitor, was treated together as a positive control and incubated for 30 minutes, and then 1 μg of lipopolysaccharide (LPS) was treated as a stimulus and cultured for 24 hours. 100 μl of the supernatant was transferred to a 96-well plate and reacted at room temperature for 10 minutes with the addition of 100 μl of GRIESS solution, so as to measure the absorbance at 540 nm, thereby determining an NO inhibitory effect of the compound of Formula 1, and the results are shown in table 4 below.
(Nitrite, measured by Griess reagent, commonly stands in for NO production.)

Data on two compounds can be found in patent US12427103B2, “Cosmetic composition containing Hibiscus manihot l. extract and method for preparing the same” (ALL IN ON Co., Ltd, priority 2022, dated 2025).

Consider `O=C1O[C@H]([C@@H](O)CO)C(O)=C1O` [vitamin C], for which the “Free radical scavenging effect (%)” value in experiment [1] amounted to 100%.

With `CNC(=N)NCCC[C@H](N)C(=O)O` [L-NMMA, L-NG-Monomethylarginine], the “NO production inhibition rate (%)” value in experiment [2] is reported as 39.14%.
